Reference: patent US20150141435A1, “2-PYRIDONE ANTIMICROBIAL COMPOSITIONS” (Emergent BioSolutions, priority 2010, published 2015)
Values after ≈ are worked out from the molar mass of the structure shown. Like-named read-outs stand apart in the source and are kept apart here.

Key:
H. influenzae ATCC 49247 = experiment: MIC, CLSI broth microdilution (Table 2); type: cell-based; settings: Haemophilus influenzae, ATCC49247; Gram negative; MHB, 37° C., 16-20 hours; read-out: MIC H. influenzae ATCC 49247
A. baumannii ATCC 19606 = experiment: MIC, CLSI broth microdilution (Table 2); type: cell-based; settings: Acinetobacter baumannii, ATCC19606; Gram negative; MHB, 37° C., 16-20 hours; read-out: MIC A. baumannii B. ATCC 19606
E. faecium ATCC 19434 = experiment: MIC, CLSI broth microdilution (Table 1); type: cell-based; settings: Enterococcus faecium, ATCC19434; Gram positive; MHB, 37° C., 16-20 hours; read-out: MIC E. faecium ATCC 19434
S. pneumonia ATCC 49619 = experiment: MIC, CLSI broth microdilution (Table 1); type: cell-based; settings: Streptococcus pneumoniae, ATCC49619; Gram positive; MHB, 37° C., 16-20 hours; read-out: MIC S. pneumonia ATCC 49619
K. pneumoniae ATCC 33495 = experiment: MIC, CLSI broth microdilution (Table 2); type: cell-based; settings: Klebsiella pneumoniae, ATCC33495; Gram negative; MHB, 37° C., 16-20 hours; read-out: MIC K. pneumoniae ATCC 33495
[1] = test system: Staphylococcus aureus (16 strains); experiment: MIC range, broader panel incl. clinical isolates (Table 3); type: cell-based
Yersinia pestis C092 = experiment: microbe, parasite or virus in culture; type: cell-based
[2] = test system: Burkholderia mallei ATCC 23344; experiment: microbe, parasite or virus in culture; type: cell-based; settings: ATCC23344
E. coli ATCC 25922 = experiment: MIC, CLSI broth microdilution (Table 2); type: cell-based; settings: Escherichia coli, ATCC25922; Gram negative; MHB, 37° C., 16-20 hours; read-out: MIC E. coli ATCC 25922
[3] = test system: Francisella tularensis Schu S4; experiment: microbe, parasite or virus in culture; type: cell-based; settings: SCHUS4
[4] = test system: Burkholderia pseudomallei ATCC 23343; experiment: microbe, parasite or virus in culture; type: cell-based; settings: ATCC23343
[5] = test system: S. aureus BAA-1720 (MRSA, FQ-R); experiment: MIC, CLSI broth microdilution (Table 1); type: cell-based; settings: Staphylococcus aureus; Gram positive; MHB, 37° C., 16-20 hours; read-out: MIC S. aureus BAA-1720 (MRSA, FQ-R)
[6] = test system: S. maltophilia ATCC 17677; experiment: MIC, CLSI broth microdilution (Table 2); type: cell-based; settings: Stenotrophomonas maltophilia, ATCC17677; Gram negative; MHB, 37° C., 16-20 hours; read-out: MIC S. maltophilia ATCC 17677
[7] = test system: Burkholderia cepacia (5 strains); experiment: MIC range, broader panel incl. clinical isolates (Table 4); type: cell-based
[8] = test system: Bacillus anthracis Ames strain; experiment: microbe, parasite or virus in culture; type: cell-based
[9] = test system: Klebsiella pneumonia (4 strains); experiment: MIC range, broader panel incl. clinical isolates (Table 4); type: cell-based; settings: Klebsiella pneumoniae
[10] = test system: Streptococcus pyogenes (4 strains); experiment: MIC range, broader panel incl. clinical isolates (Table 3); type: cell-based
[11] = test system: Acinetobacter baumannii (12 strains); experiment: MIC range, broader panel incl. clinical isolates (Table 4); type: cell-based; settings: Median of 12 strains
[12] = test system: Pseudomonas aeruginosa (12 strains); experiment: as above; type: cell-based
[13] = test system: Escherichia coli (6 strains); experiment: as above; type: cell-based
E. faecalis ATCC 29212 = experiment: MIC, CLSI broth microdilution (Table 1); type: cell-based; settings: Enterococcus faecalis, ATCC29212; Gram positive; MHB, 37° C., 16-20 hours; read-out: MIC E. faecalis ATCC 29212
[14] = test system: S. aureus ATCC 43300 (MRSA, FQ-S); experiment: MIC, CLSI broth microdilution (Table 1); type: cell-based; settings: Staphylococcus aureus; Gram positive; MHB, 37° C., 16-20 hours; read-out: MIC S. aureus ATCC 43300 (MRSA, FQ-S)
S. aureus ATCC 25923 = experiment: MIC, CLSI broth microdilution (Table 1); type: cell-based; settings: Staphylococcus aureus, ATCC25923; Gram positive; MHB, 37° C., 16-20 hours; read-out: MIC S. aureus ATCC 25923
[15] = test system: Haemophilus influenza (5 strains); experiment: MIC range, broader panel incl. clinical isolates (Table 4); type: cell-based, Haemophilus influenzae
[16] = test system: Group C Streptococcus (4 strains); experiment: MIC range, broader panel incl. clinical isolates (Table 3); type: cell-based
[17] = test system: Enterococcus faecium (3 strains); experiment: as above; type: cell-based
[18] = test system: Enterococcus faecalis (5 strains); experiment: as above; type: cell-based
[19] = test system: Streptococcus pneumonia (5 strains); experiment: as above; type: cell-based; settings: Streptococcus pneumoniae

Cc1c(C2=CCNCC2)ccn2c(=O)c(C(=O)O)cc(C3CC3)c12 [Example 42, 1-cyclopropyl-9-methyl-4-oxo-8-(1,2,3,6-tetrahydropyridin-4-yl)-4H-quinolizine-3-carboxylic acid]
MIC (H. influenzae ATCC 49247): 0.064 µg/mL (≈ 0.197 µM)
MIC (A. baumannii ATCC 19606): 2 µg/mL (≈ 6.17 µM)
MIC (E. faecium ATCC 19434): > 8 µg/mL
MIC (S. pneumonia ATCC 49619): 2 µg/mL (≈ 6.17 µM)
MIC (K. pneumoniae ATCC 33495): 0.125 µg/mL (≈ 0.385 µM)
MIC Range High, Staphylococcus aureus (16 strains) ([1]; High of 16 strains): 32 µg/mL (≈ 98.6 µM)
MIC Range Low, Staphylococcus aureus (16 strains) ([1]; Low of 16 strains): 0.5 µg/mL (≈ 1.54 µM)
MIC Range Median, Staphylococcus aureus (16 strains) ([1]; Median of 16 strains): 16.25 µg/mL (≈ 50.1 µM)
MIC (Yersinia pestis C092): 0.5 to 1 µg/mL (≈ 1.54 to 3.08 µM)
MIC [2]: 2 µg/mL (≈ 6.17 µM)
MIC (E. coli ATCC 25922): 0.064 µg/mL (≈ 0.197 µM)
MIC [3]: 0.25 to 0.5 µg/mL (≈ 0.771 to 1.54 µM)
MIC [4]: 4 µg/mL (≈ 12.3 µM)
MIC [5]: > 8 µg/mL
MIC [6]: 1 µg/mL (≈ 3.08 µM)
MIC Range High, Burkholderia cepacia (5 strains) ([7]; High of 5 strains): 2 µg/mL (≈ 6.17 µM)
MIC Range Low, Burkholderia cepacia (5 strains) ([7]; Low of 5 strains): 2 µg/mL (≈ 6.17 µM)
MIC Range Median, Burkholderia cepacia (5 strains) ([7]; Median of 5 strains): 2 µg/mL (≈ 6.17 µM)
MIC [8]: 0.25 µg/mL (≈ 0.771 µM)

C[C@H]1COc2c(N3CCN(C)CC3)c(F)cc3c(=O)c(C(=O)O)cn1c23 [Levofloxacin]
MIC ([9]; High of 4 strains, read-out: MIC Range High, Klebsiella pneumonia (4 strains)): 2 µg/mL (≈ 5.53 µM)
MIC ([9]; Low of 4 strains, read-out: MIC Range Low, Klebsiella pneumonia (4 strains)): 0.03 µg/mL (≈ 0.083 µM)
MIC50 ([9]; Median of 4 strains): 2 µg/mL (≈ 5.53 µM)
MIC (H. influenzae ATCC 49247): 0.016 µg/mL (≈ 0.0443 µM)
MIC (A. baumannii ATCC 19606): 0.25 µg/mL (≈ 0.692 µM)
MIC (E. faecium ATCC 19434): 8 µg/mL (≈ 22.1 µM)
MIC ([10]; High of 4 strains, read-out: MIC Range High, Streptococcus pyogenes (4 strains)): 2 µg/mL (≈ 5.53 µM)
MIC ([10]; Low of 4 strains, read-out: MIC Range Low, Streptococcus pyogenes (4 strains)): 0.5 µg/mL (≈ 1.38 µM)
MIC50 ([10]; Median of 4 strains): 0.75 µg/mL (≈ 2.08 µM)
MIC50 [11]: ≥ 16 µg/mL
MIC (S. pneumonia ATCC 49619): 0.5 µg/mL (≈ 1.38 µM)
MIC ([12]; High of 12 strains, read-out: MIC Range High, Pseudomonas aeruginosa (12 strains)): ≥ 16 µg/mL
MIC ([12]; Low of 12 strains, read-out: MIC Range Low, Pseudomonas aeruginosa (12 strains)): 1 µg/mL (≈ 2.77 µM)
MIC50 ([12]; Median of 12 strains): ≥ 16 µg/mL
MIC ([13]; High of 6 strains, read-out: MIC Range High, Escherichia coli (6 strains)): ≥ 16 µg/mL
MIC ([13]; Low of 6 strains, read-out: MIC Range Low, Escherichia coli (6 strains)): 0.015 µg/mL (≈ 0.0415 µM)
MIC50 ([13]; Median of 6 strains): ≥ 16 µg/mL
MIC (K. pneumoniae ATCC 33495): 0.032 µg/mL (≈ 0.0886 µM)
MIC (E. faecalis ATCC 29212): 1 µg/mL (≈ 2.77 µM)
MIC [14]: 0.125 µg/mL (≈ 0.346 µM)
MIC (S. aureus ATCC 25923): 0.25 µg/mL (≈ 0.692 µM)
MIC ([1]; Staphylococcus aureus, High of 16 strains, read-out: MIC Range High, Staphylococcus aureus (16 strains)): ≥ 16 µg/mL
MIC ([1]; Staphylococcus aureus, Low of 16 strains, read-out: MIC Range Low, Staphylococcus aureus (16 strains)): 0.12 µg/mL (≈ 0.332 µM)
MIC50 ([1]; Staphylococcus aureus, Median of 16 strains): 0.25 µg/mL (≈ 0.692 µM)
MIC ([15]; High of 5 strains, read-out: MIC Range High, Haemophilus influenza (5 strains)): 0.015 µg/mL (≈ 0.0415 µM)
MIC ([15]; Low of 5 strains, read-out: MIC Range Low, Haemophilus influenza (5 strains)): 0.008 µg/mL (≈ 0.0221 µM)
MIC50 ([15]; Median of 5 strains): 0.015 µg/mL (≈ 0.0415 µM)
MIC [5]: > 8 µg/mL
MIC ([16]; High of 4 strains, read-out: MIC Range High, Group C Streptococcus (4 strains)): 1 µg/mL (≈ 2.77 µM)
MIC ([16]; Low of 4 strains, read-out: MIC Range Low, Group C Streptococcus (4 strains)): 0.5 µg/mL (≈ 1.38 µM)
MIC50 ([16]; Median of 4 strains): 0.75 µg/mL (≈ 2.08 µM)
MIC ([17]; High of 3 strains, read-out: MIC Range High, Enterococcus faecium (3 strains)): ≥ 16 µg/mL
MIC ([17]; Low of 3 strains, read-out: MIC Range Low, Enterococcus faecium (3 strains)): 2 µg/mL (≈ 5.53 µM)
MIC50 ([17]; Median of 3 strains): ≥ 16 µg/mL
MIC [6]: 0.25 µg/mL (≈ 0.692 µM)
MIC ([7]; Burkholderia cepacia, High of 5 strains, read-out: MIC Range High, Burkholderia cepacia (5 strains)): 2 µg/mL (≈ 5.53 µM)
MIC ([7]; Burkholderia cepacia, Low of 5 strains, read-out: MIC Range Low, Burkholderia cepacia (5 strains)): 1 µg/mL (≈ 2.77 µM)
MIC50 ([7]; Burkholderia cepacia, Median of 5 strains): 2 µg/mL (≈ 5.53 µM)
MIC ([18]; High of 5 strains, read-out: MIC Range High, Enterococcus faecalis (5 strains)): ≥ 16 µg/mL
MIC ([18]; Low of 5 strains, read-out: MIC Range Low, Enterococcus faecalis (5 strains)): 1 µg/mL (≈ 2.77 µM)
MIC50 ([18]; Median of 5 strains): 2 µg/mL (≈ 5.53 µM)
MIC ([19]; High of 5 strains, read-out: MIC Range High, Streptococcus pneumonia (5 strains)): 2 µg/mL (≈ 5.53 µM)
MIC ([19]; Low of 5 strains, read-out: MIC Range Low, Streptococcus pneumonia (5 strains)): 0.5 µg/mL (≈ 1.38 µM)
MIC50 ([19]; Median of 5 strains): 1 µg/mL (≈ 2.77 µM)
